According to US11098032B2, “Pyran dervatives as CYP11A1 (cytochrome P450 monooxygenase 11A1) inhibitors” (ORION CORPORATION, priority 2016, dated 2021):

Biological target: T1, CYP11A1 (Homo sapiens, UniProt P05108)
T1 construct: human H295R adrenocortical carcinoma cell line was used as source of enzyme; endogenous in cells; host or cells: H295R human adrenocortical carcinoma cells
T1 sequence (P05108 40-521): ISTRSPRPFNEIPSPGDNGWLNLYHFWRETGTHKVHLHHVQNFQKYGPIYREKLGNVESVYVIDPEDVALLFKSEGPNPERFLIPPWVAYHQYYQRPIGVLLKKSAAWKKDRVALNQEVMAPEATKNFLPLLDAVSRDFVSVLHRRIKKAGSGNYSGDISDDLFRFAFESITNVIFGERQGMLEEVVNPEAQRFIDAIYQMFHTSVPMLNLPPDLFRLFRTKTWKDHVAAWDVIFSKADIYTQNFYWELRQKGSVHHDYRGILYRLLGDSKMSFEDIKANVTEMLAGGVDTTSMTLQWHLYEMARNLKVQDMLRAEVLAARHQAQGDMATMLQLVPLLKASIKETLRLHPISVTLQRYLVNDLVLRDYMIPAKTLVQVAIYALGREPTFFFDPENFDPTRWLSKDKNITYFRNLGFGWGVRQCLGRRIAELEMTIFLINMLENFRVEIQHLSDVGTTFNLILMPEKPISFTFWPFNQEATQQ
Assay: CYP11A1 inhibition: modified isocaproic acid release assay (IARA) in H295R cells
Assay type: cell-based
Conditions: human H295R adrenocortical carcinoma cells treated three days, 3 nM [24,25-3H]-labelled cholesterol, 1% DMSO, 10 concentrations in duplicates; read-out: IC50 of the test compounds on CYP11A1 inhibition
Description: The ability of the test compounds to inhibit conversion of cholesterole to pregnenolone and isocaproic acid was measured by modification of isocaproic acid release assay (IARA) described by Ruangwises et. al. (Biology of Reproduction 1991; 45(1):143-50) except that human H295R adrenocortical carcinoma cell line was used as source of enzyme and extraction was done with dextran-coated charcoal suspension (Isomaa, V. et al., Endocrinology 1982; 111(3):833-843). […] To determine the half maximal inhibitory concentration (IC50) of the test compounds on CYP11A1 inhibition, the cells were treated for three days with increasing concentrations of the test compounds in the presence of 3 nM [24,25-3H]-labelled cholesterol (American Radiolabelled Chemicals). The final DMSO concentration was 1%. Cell culture medium was extracted with dextran-coated charcoal suspension and the radiolabelled isocaproic acid was determined by mixing 100 μl of supernatant fraction in 200 μl of scintillation fluid (OptiPhase SuperMix, Perkin Elmer). Radioactivity was measured using a Microbeta scintillation counter (1450 MicroBeta Trilux, Wallac). All the test compounds were studied at 10 concentrations in duplicates.

SMILES	IC50 [nM]
O=c1cc(CN2Cc3ccccc3C2)occ1OCc1ccc(CO)cc1 [Compound 123, 5-((4-(Hydroxymethyl)benzyl)oxy)-2-(isoindolin-2-ylmethyl)-4H-pyran-4-one]	301 to 2000
CS(=O)(=O)N1CCC(COc2coc(CN3Cc4cc(F)c(F)cc4C3)cc2=O)CC1 [Compound 210, 2-((5,6-Difluoroisoindolin-2-yl)methyl)-5-((1-(methylsulfonyl)piperidin-4-yl)methoxy)-4H-pyran-4-one]	150 to 300
CN(C)C(=O)N1CCC(COc2coc(CN3Cc4ccc(F)cc4C3)cc2=O)CC1 [Compound 181, 4-(((6-((5-Fluoroisoindolin-2-yl)methyl)-4-oxo-4H-pyran-3-yl)oxy)methyl)-N,N-dimethylpiperidine-1-carboxamide]	150 to 300
CS(=O)(=O)c1ccc(COc2coc(CN3Cc4ccccc4C3)cc2=O)cc1 [Compound 1, 2-(Isoindolin-2-ylmethyl)-5-((4-(methylsulfonyl)benzyl)oxy)-4H-pyran-4-one]	150 to 300
CCS(=N)(=O)c1ccc(COc2coc(CN3Cc4ccc(F)cc4C3)cc2=O)cc1 (centres unmarked) [Compound 102, 5-((4-(Ethylsulfonimidoyl)benzyl)oxy)-2-((5-fluoroisoindolin-2-yl)methyl)-4H-pyran-4-one]	150 to 300
O=C(c1ccc(COc2coc(CN3Cc4ccc(F)cc4C3)cc2=O)cc1)N1CCC1 [Compound 150, 5-((4-(Azetidine-1-carbonyl)benzyl)oxy)-2-((5-fluoroisoindolin-2-yl)methyl)-4H-pyran-4-one]	301 to 2000
N#Cc1ccc(COc2coc(CN3CCc4ccccc4C3)cc2=O)c(F)c1 [Compound 51, 4-(((6-((3,4-Dihydroisoquinolin-2(1H)-yl)methyl)-4-oxo-4H-pyran-3-yl)oxy)-methyl)-3-fluorobenzonitrile]	301 to 2000
CS(=O)(=O)N1CCC(COc2coc(CN3Cc4ccc(C#N)cc4C3)cc2=O)CC1 [Compound 245a, 2-((5-((1-(methylsulfonyl)piperidin-4-yl)methoxy)-4-oxo-4H-pyran-2-yl)methyl)-isoindoline-5-carbonitrile]	301 to 2000
Cc1ccc2c(c1)CN(Cc1cc(=O)c(OCc3ccc(S(C)(=O)=O)cc3)co1)C2 [Compound 279, 2-((5-Methylisoindolin-2-yl)methyl)-5-((4-(methylsulfonyl)benzyl)oxy)-4H-pyran-4-one]	150 to 300
CC(F)(F)C(=O)N1CCC(COc2coc(CN3Cc4ccc(F)cc4C3)cc2=O)CC1 [Compound 223, 5-((1-(2,2-Difluoropropanoyl)piperidin-4-yl)methoxy)-2-((5-fluoroisoindolin-2-yl)methyl)-4H-pyran-4-one]	150 to 300
CS(=O)(=O)c1ccc(COc2coc(CN3Cc4cccc(F)c4C3)cc2=O)cc1 [Compound 27, 2-((4-Fluoroisoindolin-2-yl)methyl)-5-((4-(methylsulfonyl)benzyl)oxy)-4H-pyran-4-one]	301 to 2000
CS(=O)(=O)N1[C@@H]2CC[C@H]1CC(COc1coc(CN3Cc4ccccc4C3)cc1=O)C2 (stereo partly drawn) [Compound 177, 2-(Isoindolin-2-ylmethyl)-5-(((1R,5S)-8-(methylsulfonyl)-8-azabicyclo[3.2.1]-octan-3-yl)methoxy)-4H-pyran-4-one]	150 to 300
CNC(=O)N1CCC(COc2coc(CN3Cc4ccccc4C3)cc2=O)CC1 [Compound 228, 4-(((6-(Isoindolin-2-ylmethyl)-4-oxo-4H-pyran-3-yl)oxy)methyl)-N-methyl-piperidine-1-carboxamide]	150 to 300
CN(C)S(=O)(=O)N1CCC(COc2coc(CN3Cc4ccc(F)cc4C3)cc2=O)CC1 [Compound 230, 4-(((6-((5-Fluoroisoindolin-2-yl)methyl)-4-oxo-4H-pyran-3-yl)oxy)methyl)-N,N-dimethylpiperidine-1-sulfonamide]	< 150

Other lines, results leading:

IC50 [nM]	SMILES
301 to 2000	Cc1ccc(COc2coc(CN3CCc4ccccc4C3)cc2=O)cc1 [Compound 42, 2-((3,4-Dihydroisoquinolin-2(1H)-yl)methyl)-5-((4-methylbenzyl)oxy)-4H-pyran-4-one]
150 to 300	O=c1cc(CN2Cc3ccccc3C2)occ1OCc1ccc(S(=O)(=O)N2CCOCC2)cc1 [Compound 6, 2-(Isoindolin-2-ylmethyl)-5-((4-(morpholinosulfonyl)benzyl)oxy)-4H-pyran-4-one]
150 to 300	CC(=O)OCC(C)(C)NC(=O)c1ccc(COc2coc(CN3Cc4ccccc4C3)cc2=O)cc1 [Compound 143, 2-(4-(((6-(Isoindolin-2-ylmethyl)-4-oxo-4H-pyran-3-yl)oxy)methyl)benzamido)-2-methylpropyl acetate]
< 150	CC(C)(C)C(=O)N1CCC(COc2coc(CN3Cc4ccccc4C3)cc2=O)CC1 [Compound 251, 2-(Isoindolin-2-ylmethyl)-5-((1-pivaloylpiperidin-4-yl)methoxy)-4H-pyran-4-one]
< 150	COCCS(=O)(=O)N1CCC(COc2coc(CN3Cc4ccccc4C3)cc2=O)CC1 [Compound 262, 2-(Isoindolin-2-ylmethyl)-5-((1-((2-methoxyethyl)sulfonyl)piperidin-4-yl)-methoxy)-4H-pyran-4-one]
150 to 300	CCN(CC)S(=O)(=O)c1ccc(COc2coc(CN3Cc4ccccc4C3)cc2=O)cc1 [Compound 4, N,N-Diethyl-4-(((6-(isoindolin-2-ylmethyl)-4-oxo-4H-pyran-3-yl)oxy)methyl)-benzenesulfonamide]
< 150	CC(C)(C)NC(=O)c1ccc(COc2coc(CN3Cc4ccccc4C3)cc2=O)cc1 [Compound 131, N-(tert-Butyl)-4-(((6-(isoindolin-2-ylmethyl)-4-oxo-4H-pyran-3-yl)oxy)methyl)-benzamide]
150 to 300	CS(=N)(=O)c1ccc(COc2coc(CN3Cc4ccc(F)cc4C3)cc2=O)cc1 (centres unmarked) [Compound 88, 2-((5-Fluoroisoindolin-2-yl)methyl)-5-((4-(S-methylsulfonimidoyl)benzyl)oxy)-4H-pyran-4-one]
301 to 2000	Nc1cccc(COc2coc(CN3Cc4ccccc4C3)cc2=O)c1 [Compound 263, 5-((3-Aminobenzyl)oxy)-2-(isoindolin-2-ylmethyl)-4H-pyran-4-one]
< 150	CC(C)NC(=O)N1CCC(COc2coc(CN3Cc4ccccc4C3)cc2=O)CC1 [Compound 229, 4-(((6-(Isoindolin-2-ylmethyl)-4-oxo-4H-pyran-3-yl)oxy)methyl)-N-isopropyl-piperidine-1-carboxamide]
< 150	CN(C)C(=O)C1CCC(COc2coc(CN3Cc4ccccc4C3)cc2=O)CC1 (centres unmarked) [Compound 217, 4-(((6-(Isoindolin-2-ylmethyl)-4-oxo-4H-pyran-3-yl)oxy)methyl)-N,N-dimethyl-cyclohexane-1-carboxamide]
301 to 2000	CC(C)(C)OC(=O)N1CCC(Oc2coc(CN3Cc4ccccc4C3)cc2=O)CC1 [Compound 203, tert-Butyl 4-((6-(isoindolin-2-ylmethyl)-4-oxo-4H-pyran-3-yl)oxy)piperidine-1-carboxylate]
150 to 300	NC(=O)c1ccc(COc2coc(CN3Cc4ccccc4C3)cc2=O)c(F)c1 [Compound 56, 3-Fluoro-4-(((6-(isoindolin-2-ylmethyl)-4-oxo-4H-pyran-3-yl)oxy)methyl)-benzamide]
301 to 2000	O=c1cc(CN2Cc3ccccc3C2)occ1OCc1cccc([N+](=O)[O-])c1 [Compound 105, 2-(Isoindolin-2-ylmethyl)-5-((3-nitrobenzyl)oxy)-4H-pyran-4-one]
< 150	CS(C)(=O)=NC(=O)c1ccc(COc2coc(CN3Cc4ccccc4C3)cc2=O)cc1 [Compound 83, 4-({[6-(1,3-Dihydro-2H-isoindol-2-ylmethyl)-4-oxo-4H-pyran-3-yl]oxy}methyl)-N-[dimethyl(oxido)-λ^6-sulfanylidene]benzamide]
< 150	Cc1ccc2c(c1)CN(Cc1cc(=O)c(OCC3CCN(S(C)(=O)=O)CC3)co1)C2 [Compound 211, 2-((5-Methylisoindolin-2-yl)methyl)-5-((1-(methylsulfonyl)piperidin-4-yl)-methoxy)-4H-pyran-4-one]
150 to 300	CC(C)(C)NC(=O)N1CCC(COc2coc(CN3Cc4ccccc4C3)cc2=O)CC1 [Compound 248, N-(tert-Butyl)-4-(((6-(isoindolin-2-ylmethyl)-4-oxo-4H-pyran-3-yl)oxy)-methyl)piperidine-1-carboxamide]
301 to 2000	NS(=O)(=O)c1ccc(COc2coc(CN3Cc4ccccc4C3)cc2=O)cc1 [Compound 13, 4-(((6-(Isoindolin-2-ylmethyl)-4-oxo-4H-pyran-3-yl)oxy)methyl)benzenesulfonamide]
